{"source": "patent US10946019B2", "about": "“Nurr1:RXR activating compounds for simultaneous treatment of symptoms and pathology of Parkinson's disease” (priority 2015, dated 2021)", "key": {"[1]": {"biological_target": "RXRαVP16 heterodimer chimeras with RXRγGAL4 (Homo sapiens (Human), UniProt P19793)", "assay": "GAL4/VP16 chimera specificity luciferase assay in SHSY-5Y", "format": "cell-based", "conditions": "GAL4-responsive luciferase reporter", "method": "(§1) Compound 3 specifically activates Nurr1:RXRα heterodimers over other RXR-containing transcription co-activator complexes. Specificity assays fusing DNA sequences of the gal4 DNA binding domain to the nuclear receptor Ligand-Binding-Domain (LDB) and to vp16 were performed as follows: Human SHSY-5Y cells were cotransfected with 20 ng of MH100-tk -luciferase, 10 ng of CMX-bgal, 20 ng of CMX-GAL4-RXRα-LBD and 20 ng of CMX-VP16-NR-LBD, where NR stands for either Nurr1, VDR, PPARγ. CMX-VP16-VDR-LBD and CMX-VP16-PPARγ-LBD were kindly provided by Dr Makishima ([…]). CMX-VP16-Nurr1-LBD was produced by cloning the Nurr1 LBD in the CMX-VP16 vector using KpnI. More specifically, Nurr1-LBD was isolated by PCR from a vector containing the Nurr1 cDNA using a set of primers flanking the Nurr1 LBD sequence and carrying at both sides the KpnI restriction sites, namely Nurr1 Forward […] (SEQ ID NO: 1) and Nurr1 Reverse […] (SEQ ID NO: 2). To exclude the possibility that compound 3 might transactivate RXRγ:Nurr1 heterodimers, CMX-GAL4-RXRγ-LBD was constructed by cloning the RXRγ LBD that was isolated by PCR from a vector containing the RXRγ cDNA (RIKEN, Tokyo, Japan) using the following Forward and Reverse primers carrying KpnI and NheI restriction sites, respectively, namely RXRγ Forward […] (SEQ ID NO: 3) and RXRγ LBD Reverse […] (SEQ ID NO: 4). 17 hours after transfection the compound was added to the medium at the corresponding concentrations and left for another 12 hours. Then the cells were assayed for luciferase activity normalized to galactosidase activity.\n(§2) To test off-target effects of compound 3 on complexes aside from Nurr1:RXRα heterodimers, we fused the ligand binding domains of Nurr1, RXRα and a variety of related nuclear receptors to GAL4 DNA-binding domain to create chimeric proteins, while the ligand-binding domain of RXRα was also fused with VP16. These molecular chimeras were co-transfected in pairs with the RXRα:VP16 along with a GAL4-responsive luciferase reporter in SHSY-5Y, which were stimulated with compound 3. […] The above experiments indicate the high degree of selectivity of compound 3 and point to its neuroprotective potential."}, "[2]": {"biological_target": "RXRαVP16 heterodimer chimeras with PPARγGAL4 (Homo sapiens (Human), UniProt P19793)", "assay": "GAL4/VP16 chimera specificity luciferase assay in SHSY-5Y", "format": "cell-based", "conditions": "GAL4-responsive luciferase reporter", "method": "as §1, §2"}, "[3]": {"biological_target": "RXRαGAL4 homodimer chimeras (Homo sapiens (Human), UniProt P19793)", "assay": "GAL4/VP16 chimera specificity luciferase assay in SHSY-5Y", "format": "cell-based", "conditions": "GAL4-responsive luciferase reporter", "method": "as §1, §2"}, "[4]": {"biological_target": "Nurr1GAL4:RXRαVP16 heterodimer chimeras (Homo sapiens (Human), UniProt P19793)", "assay": "GAL4/VP16 chimera specificity luciferase assay in SHSY-5Y", "format": "cell-based", "conditions": "GAL4-responsive luciferase reporter", "method": "as §1, §2"}, "[5]": {"biological_target": "RXRαVP16 heterodimer chimeras with VDRGAL4 (Homo sapiens (Human), UniProt P19793)", "assay": "GAL4/VP16 chimera specificity luciferase assay in SHSY-5Y", "format": "cell-based", "conditions": "GAL4-responsive luciferase reporter", "method": "as §1, §2"}, "[6]": {"biological_target": "Nur77GAL4:RXRαVP16 heterodimers (Homo sapiens (Human), UniProt P19793)", "assay": "GAL4/VP16 chimera specificity luciferase assay in SHSY-5Y", "format": "cell-based", "conditions": "GAL4-responsive luciferase reporter", "source_text": "as §2"}, "c-jun": {"test_system": "c-jun", "assay": "Midbrain c-jun expression by qPCR after administration to mice", "format": "in vivo, mouse", "conditions": "IP compound 3, qPCR 2 hours after administration", "method": "FIGS. 69A-69C show the brain penetration, half-life, and c-jun transcriptional activation of compound 3. […] Mice (n=5) were sacrificed 1, 2, 4, 8 and 24 hours after IP administration and brains were dissected 1, 2, 4, 8 and 24 hours post administration. The concentrations of the parent compound in plasma and brain were determined by LC/MSMS.\nTo assess the neuroprotective effect of compound 3, this compound was dosed to wt mice intraperitoneally (IP) at 10 mg/kg injections of compound 3 in Ethanol:PG:Saline 10:30:60. After 2 h and 4 h animals (n=3 per time point) were sacrificed, and their brains obtained. After extraction c-jun and tyrosine hydroxylase (TH) levels in brain extract were determined by qPCR (FIG. 1E, 1F)."}, "Rat cortical neurons": {"test_system": "Rat cortical neurons", "assay": "Apoptosis of cortical neurons transfected with LRRK2-G2019S, DAPI staining", "format": "cell-based", "conditions": "rat cortical neurons co-transfected with CMV-GFP and LRRK2-G2019S", "source_text": "(§3) We examined the neuroprotective capability of Nurr1:RXRα heterodimer activation in SHSY-5Y cells where death was induced by either the oxidative stress related H2O2 or the mitochondria complex I inhibitor MPP+ (1-methyl-4-phenylpyridinium) (FIG. 72B). […] The protection conferred by compound 3 was Nurr1-dependent, since it was abrogated by knocking-down endogenous Nurr1 mRNA (FIGS. 1E and 72D). The neuroprotective effects of compound 3 extend to damage induced by the PD-associated mutation G2019S in the Leucine-Rich Repeat Kinase 2 (LRRK2) gene, the most common genetic defect associated with clinical PD (Tofaris et al. J. Neurosci. 26:3942-3950, 2006). Rat cortical neurons, co-transfected with CMV-GFP for identification, and CMVLRRK2-G2019S cDNAs show increased apoptosis as assessed by DAPI staining, compared to control neurons co-transfected with a LRRK2 wt cDNA."}, "[7]": {"test_system": "Nurr1 heterozygote 129/SV mice treated with MPTP", "assay": "Neuroprotection against MPTP in Nurr1 heterozygote 129/SV mice", "format": "in vivo, mouse", "conditions": "Nurr1 heterozygote (Nurr1+/−) 129/SV mice", "method": "20 mg/kg MPTP injections were administered 4 times at the zero day of treatment, spaced 2 hours apart. 7 days after the MPTP injections there was approximately an 80% reduction in striatal projections and 40%-50% dopaminergic neuron death in the SN."}, "[8]": {"test_system": "C57BL/6 mice exposed to MPTP", "assay": "Neuroprotection in the acute MPTP mouse model", "format": "in vivo"}, "SHSY-5Y cells": {"test_system": "SHSY-5Y cells", "assay": "H2O2 induced cell death, MTT assay", "format": "cell-based, human", "conditions": "12.5 μM, varying concentrations of H2O2", "source_text": "FIGS. 72A-72R show the ability of compound 3 to induce the expression of genes involved in dopamine biosynthesis as well as the neuroprotective effects of compound 3 in cell lines and patient iPCs-derived dopaminergic neurons. […] FIGS. 72F, 72G, 72H, and 72I show representative confocal microscopy images of the compound 3-treated primary rat cortical neurons. […] FIG. 72M-72R show the effects of compound 3 on PD patient iPS cell-derived dopaminergic neurons with the LRRK2-G2019S mutation or corrected mutation (GC). Compound 3 treatment rescues neurite length (M, expressed in […]), number (N) and branching (O) phenotypes. Representative images show staining with TuJ, TH and DAPI (FIGS. 72P, 72Q, and 72R).\nas §3, with “The neuroprotective effects of compound 3 extend to damage induced by the PD-associated mutation G2019S in the Leucine-Rich Repeat Kinase 2 (LRRK2) gene, the most common genetic defect associated with clinical PD (Tofaris et al. J. Neurosci. 26:3942-3950, 2006).” left out"}}, "note": "“Also recorded” adds a separate entry of the source."}
{"smiles": "C=CCc1c(N(C)c2ccc(C(=O)O)cc2)nc(-c2ccccc2)nc1C(F)(F)F", "note": "[Example 3, 4-((5-allyl-2-phenyl-6-(trifluoromethyl)pyrimidin-4-yl)(methyl)amino)benzoic acid]", "values": [{"measurement": "activation of RXRγGAL4:RXRαVP16 chimeras", "setting": "[1]", "value": "failed to activate"}, {"measurement": "activation of PPARγGAL4:RXRαVP16 chimeras", "setting": "[2]", "value": "failed to activate"}, {"measurement": "activation of RXRαGAL4 homodimer chimeras", "setting": "[3]", "value": "failed to activate"}, {"measurement": "activation of Nurr1GAL4:RXRαVP16 heterodimer chimeras", "setting": "[4]", "value": "strongly activated"}, {"measurement": "activation of VDRGAL4:RXRαVP16 chimeras", "setting": "[5]", "value": "failed to activate"}, {"measurement": "activation of Nur77GAL4:RXRαVP16 heterodimers", "setting": "[6]", "value": "partially activated"}, {"measurement": "midbrain c-jun expression", "setting": "c-jun", "value": "increased"}, {"measurement": "apoptosis induced by LRRK2-G2019S", "setting": "Rat cortical neurons", "value": "reduced apoptosis to control levels"}, {"measurement": "neuroprotection against MPTP toxicity (surviving neuronal bodies)", "setting": "[7]", "value": "did not lead to a statistically significant increase; also recorded: abolished"}, {"measurement": "remaining SN axonal terminals in the striatum", "setting": "[8]; 10 mg/kg IP every 12 hours", "value": "doubling"}, {"measurement": "increase of TH(+) midbrain neuron survival", "setting": "[8]; 10 mg/kg IP every 12 hours for 6 days, stereology", "value": 31, "unit": "%"}, {"measurement": "improvement of motor coordination (accelerating rotarod)", "setting": "[8]; 10 mg/kg IP every 12 hours for 6 days, vs vehicle", "value": "> 100", "unit": "%"}, {"measurement": "neuroprotection with once-a-day injection regimen", "setting": "[8]; 20 mg/kg once a day", "value": "ineffective"}, {"measurement": "increase in number of surviving neuronal bodies (SNpc)", "setting": "[8]; C57/BL6, IP 10 mg/kg every 12 hours for 8 days", "value": 33.5, "unit": "%"}, {"measurement": "cell survival against H2O2", "setting": "SHSY-5Y cells", "value": "significantly increased cell survival"}]}
